These results are taken from a melting point compilation (Tetko et al.; mined from patent text by program, amines drawn as free bases though some values may be those of a salt).

A value given as a limit tells only on which side of the number the result lay.

For the molecule `O=S1NC(Cc2csc3ccccc23)=NO1` (configuration not stated), the melting point (usually the temperature of the solid-liquid transition) is 134 to 136 °C.
Turning to `Cc1cccc(Cl)c1C=NS`, the melting point was 143 °C.
As for `O=C(Cn1nc(-c2ccccc2O)nc1-c1ccccc1O)NCCOCCO`, the figure is 173 to 174 °C; as for `C1=CCC2=C(C1)CCc1ccccc1C2CCN1CCCC1` (configuration not stated), 57 to 58.5 °C.
The molecule `CNC(=O)c1ccc(C)c(-n2c(C)cc(OCc3ccccc3CNC(=O)Nc3cc(C(C)(C)C)nn3-c3cccc(OCCO)c3)c(Cl)c2=O)c1` came in with a melting point of 168 to 170 °C.
The value for `Cc1ccc(C(=O)NCCc2ccccn2)c(Nc2ccc3[nH]ncc3c2)n1` was 98 to 99 °C.
As for `CC(O)c1c(-c2ccc(O)cc2)oc2ccc(O)cc12` (configuration not stated), the figure is 177 to 182 °C.
The value for `CN(C(=O)OCc1ccccc1)c1ccc(OCC(=O)O)cc1` was 96 to 97 °C.
For the molecule `Cc1c(C2=C(c3cn(C)c4ccccc34)C(=O)NC2=O)c2ccccc2n1C`, the melting point was more than 290 °C.
`COc1ccc(C2=NN(Cc3ccncc3)C(=O)[C@H]3CCCC[C@@H]23)cc1OC` (relative stereo): the melting point is 87 to 89 °C.
`Oc1nc(O)c2occc2n1` displayed a melting point of 233 °C.
With `O=C1c2ccc(O)cc2C(=O)N1c1ccc(C2(c3ccc(N4C(=O)c5ccc(O)cc5C4=O)cc3)c3ccccc3-c3ccccc32)cc1`, the melting point was more than 300 °C.
The value for `OCCn1cnc2c(O)nc3ccccc3c21` was more than 300 °C.
The value for `Clc1ccc(-c2coc(CCCI)n2)cc1` was 49 to 50 °C; that for `O=C(Nc1cc(C(F)(F)F)cc(C(F)(F)F)c1)c1cnc(Cl)nc1Cl` was 104 to 105 °C; that for `COc1cc(/C=C/c2cc(OC)c(OC)c(OC)c2)cc(OC)c1OC` was 220 °C.
The value for `Cn1c(S(=O)(=O)CCCl)nnc1S(=O)(=O)CCCl` was 156 °C; that for `CCN(CC)CCN(CCN1CCCCC1)c1ccc(-c2nc3cc(Cl)c(Cl)cc3[nH]2)cc1` was 160 to 163 °C.
As to `CC(=O)NCC1(C)CC(O)c2ccccc2O1` (configuration not stated), the melting point lay within 168 to 170 °C.
On to `Oc1ccc(-c2c3ccccc3c(Br)c3sc4ccccc4c23)cc1`, for which the melting point was in the range of 211 to 213 °C.
The value for `CCOC(=O)CCCCOc1ccc(OCC)cc1C=O` was 80 to 81 °C.
As for `CCN1CCc2cc(Nc3ncc(Cl)c(N[C@@H]4CCCC[C@H]4NS(C)(=O)=O)n3)c(OC)cc2CC1=O`, the figure is 139 to 150 °C; as for `O=C(O)COc1ccc(OC(F)(F)F)cc1C(=O)NCc1cccc([N+](=O)[O-])c1`, 154 to 156 °C.
The value for `O=S(=O)(Nc1ccc2c(OCc3csc(-c4ccccc4Cl)n3)cccc2c1)C(F)(F)F` was 128 to 129 °C.
For the molecule `Cc1ccccc1-c1nn(C(C)(C)C(=O)N(C)C)cc1C`, the melting point was 145 to 147 °C.
The value for `CCOC(=O)c1cc(C=Cc2ccc(O)c(OC)c2)n[nH]1` was 99 to 101 °C; that for `COc1c(OCc2ccccc2)ccc2[nH]ccc(=O)c12` was 180 °C; that for `Cc1ccc(Sc2ccccc2)c(CC(=O)O)c1` was 83 to 84 °C.
The value for `C[C@H](Cn1cccn1)NC(=O)c1c[nH]c2ncc(-c3nn(C)c4cc(F)ccc34)nc12` was 252 to 253 °C; that for `CC(=O)OCC(O)(CN(C)S(=O)(=O)c1cc(C)ccc1C)c1ccccc1` (configuration not stated) was 84 to 85 °C; that for `COc1ccc2c(c1)CC[C@H](CN1CCC3(CC1)C(=O)NCN3c1ccccc1)[C@@H]2O` (relative stereo) was 182 to 183 °C.
`CCNC(=O)c1c([Si](C)(C)C)ccc(-c2ccccc2)c1Cl` registered a melting point of 134 to 135 °C.
The value for `CC(C)(C)c1ccc(/C=N/OCCCOc2ccc(C(=O)O)c(NC(=O)c3ccc(C(C)(C)C)cc3)c2)cc1` was 192 to 194 °C.
As for `COc1ccc(C(=O)Nc2ccccc2)c(C(=O)Cc2ccccn2)c1`, the figure is 145 to 148 °C; as for `Cc1ccc2c(cc(CCCC(=O)O)n2S(=O)(=O)c2ccc3ncsc3c2)n1`, 67 to 70 °C.
The value for `CC(CSC(=S)c1ccccc1)C(=O)N1CCCC1C(=O)O` (configuration not stated) was 157 to 158 °C; that for `COC(=O)c1cc2ccc(OC)cc2n1CCN1CCC(NCc2cc3c(cn2)OCCO3)CC1` was 130 °C; that for `CC(C)[C@@H](CO)Nc1nc(Nc2cccc(NS(C)(=O)=O)c2)nc2[nH]ccc12` was 106 to 109 °C.
For the molecule `CC(C)CC(=O)N1CCC(NC(=O)c2ccccc2Oc2ccc(Cl)cc2Cl)CC1`, the melting point is 57 to 60 °C.
On to `CC(C)CCCC(C)C1CCC2C3CC=C4CC(OCCCCCCO)CCC4(C)C3CCC12C` (configuration not stated), for which the melting point was in the range of 75.9 to 81 °C.
Consider `NS(=O)c1ncnc2c1ccn2C1CC(O)C(CO)O1` (configuration not stated), for which the melting point was in the range of 170 to 172 °C.
The value for `Cn1cnc(S(=O)(=O)Nc2ccc(C(c3c(O)c4c(oc3=O)CCCCCC4)C3CC3)cc2)c1` (configuration not stated) was 238 to 242 °C; that for `Fc1ccc(Nc2nc(NCc3ccc(Cl)nc3)nc(NN=Cc3ccc(OC(F)(F)F)cc3)n2)cc1C(F)(F)F` was 117 to 125 °C.
`COc1cccc2c1OC(C)C2=O` (configuration not stated) yielded a melting point of 60 to 61 °C.
Molecule `CC(=O)Nc1ccc(Nc2ccccc2[N+](=O)[O-])cc1` displayed a melting point of 164 to 166 °C.
As to `COc1cccc2c3c(c(=O)[nH]c12)CCN3c1ccccc1`, the melting point is 75 to 77 °C.
As for `CC(C)OC12NC(=O)C(C)(C(C)C)N1C(=O)c1cccnc12` (configuration not stated), the figure is 158 to 160 °C; as for `Cc1cc(SC(C)C)c(NC(=O)CCCSc2nc3ccccc3o2)c(SC(C)C)n1`, 128 to 129 °C.
On to `COc1ccc2cc(C(C)=CC(C)=O)cc(F)c2c1`, for which the melting point was in the range of 126 to 127 °C.
In turn, `CN(C)CCCCCC=C(NC(=O)C1CC1(C)C)C(=O)O` (configuration not stated) returned a melting point of 101 to 112 °C.
As for `N#Cc1c(-c2ccc(Cl)cc2)[nH]c(Br)c1Cl`, the figure is 262 to 263 °C; as for `NS(=O)(=O)c1cc2c(s1)CCC(=O)C2`, 148 to 150 °C.
The value for `O=C(NCCO)c1c([N+](=O)[O-])cccc1S(=O)(=O)NCCO` was 176 to 178 °C; that for `NNC(=O)C1=Nc2cccc3c(=O)[nH]nc(c23)N1` was more than 300 °C.
`CC(C)OC(=O)Nc1ccc(N)c([N+](=O)[O-])c1` displayed a melting point of 173 to 175 °C.
`CCOP(=O)(Cc1cc(C2CCCCC2)c(O)c(C2CCCCC2)c1)OCC` gave a melting point of 120 °C.
As for `COc1cc(CCCC2SC(=O)NC2=O)ccc1OCc1nc(-c2ccccc2)sc1C` (configuration not stated), the figure is 149 to 150 °C; as for `N#Cc1c[nH]cc1-c1ccc(Cl)cc1`, 147 to 148 °C.
As for `COc1ccc2c(c1)cc(-c1cc3cccnc3[nH]1)n2C`, the figure is 234 to 235 °C; as for `O=C(O)c1ccccc1-c1nnc(-c2ccccc2)o1`, 173 to 175 °C; as for `OC(COc1ncnc2nc[nH]c12)CN1CCN(C(c2ccccc2)c2ccccc2)CC1` (configuration not stated), 115 °C.
The value for `Cc1cccc(-c2nc(N)sc2-c2ccnc(-c3ccc(OCCN4CCCC4)cc3)c2)n1` was 176 to 178 °C.
Molecule `OC[C@H](O)[C@H](O)COc1nc(N2CCNCC2)nc2ccccc12` (racemic) yielded a melting point of 168 to 172 °C.
The value for `C=CCNc1nc(NC(=O)C(C)(C)C)c2scc(C)c2n1` was 88 to 89 °C; that for `CCC(=O)NC[C@H]1CN(c2ccc3c(c2)CCCc2cn[nH]c2-3)C(=O)O1` was 233 to 235 °C; that for `COc1ccc(C(=O)Nc2ccc(C)c(Cl)c2)cc1NC(=S)Nc1cc(Cl)cc(Cl)c1` was 195 to 196 °C.
For the molecule `COc1cc2c(c3c1OC(C)(C)C3)C(c1cccc(N(C(C)=O)c3cccnc3)c1)=NC(C)(C)C2`, the melting point lay in the range of 157 to 158 °C.
The value for `Cc1cc(=O)[nH]c2c3c(cc(O)c12)OC(C)C(C)C3=O` (configuration not stated) was 300 °C; that for `O=C(c1ccc(-c2cnc3c(c2)N(Cc2c(Cl)cccc2Cl)C(=O)CN3)cc1)N1CCC(N2CCCC2)CC1` was 199 °C; that for `COC(=O)c1ccc(OC)cc1S(N)(=O)=O` was 135 to 139 °C.
The value for `CC(C)(C)OC(=O)Nc1sc(-c2cccnc2)nc1C(F)(F)F` was 145 to 147 °C; that for `COCCOC(=O)COc1ccc(C(=O)[C@H](COC(C)(C)C)NC(=O)c2ccc(C(=N)NC(=O)OC(C)(C)C)cc2)cc1` was 174 °C; that for `CC(=O)C1=C(O)C(=C(C)Nc2ccc(N)cc2)C(=O)OC1=O` was 215 to 218 °C.
As to `O=c1[nH]cc(C=Cc2cccnc2)c2ccccc12`, the melting point was in the range of 222 to 224 °C.
The value for `COc1cc2c(c3c1OC(C)(C)C3)C(c1cccc(NC(C)=O)c1)=NC(C)(C)C2` was 246 to 247 °C; that for `CC(c1ccc(F)cc1)N1CCC(n2cnc3ccccc3c2=O)CC1` (configuration not stated) was 179 to 180 °C; that for `CCCCS(=O)(=O)N[C@@H](Cc1ccc(NC(=O)NC(=O)c2ccc(C#N)cc2)cc1)C(=O)OC(C)(C)C` was 171 to 173 °C.
As for `CCC(CC)(CC)C(=O)Nc1nn(C)c2c1sc1ncccc12`, the figure is 138 to 139 °C; as for `CN(Cc1ccc(NC(=O)C2=Cc3cc(-c4ccc(Cl)cc4)ccc3S(=O)(=O)CC2)cc1)C1CCC(=O)CC1`, 197 to 200 °C; as for `Cc1ccc(-c2cc(F)c(F)cc2-c2ccc(S(N)(=O)=O)cc2)cc1C`, 133 to 134 °C.
Molecule `O=C(O)C1=Cc2cc(Cl)cc(Cl)c2SC1C(F)(F)F` (configuration not stated) showed a melting point of 218 to 220 °C.
The value for `COc1cc2ncnc(N3CCC(CN)CC3)c2cc1OC` was 144 to 146 °C; that for `COC(=O)c1c(Cl)c(-c2cccc(C(F)(F)F)c2)nn1C` was 97 to 98 °C; that for `Oc1cnc2cc(F)ccc2n1` was 304 to 305 °C.
The value for `COc1ccc(CSc2nnc(-c3ccnc(NC(=O)CCc4ccccc4)c3)o2)cc1C(F)(F)F` was 180 to 181 °C.
The molecule `CCCCCCCCCCCCCCCCCCNC(=O)OCC(CNS(=O)(=O)CCCI)NC(=O)NC` (configuration not stated) had a melting point of 87 to 89 °C.
As for `CCCn1c(=O)c2cc(C(=O)O)cn2c2ccccc21`, the figure is 260 to 262 °C.
